Series [1] concerns the target T1, Core antigen (Hepatitis B virus, UniProt Q03732). The series can be described thus: Inhibition of Hepatitis B virus core protein expressed in HBC cells derived from HEK293T cells assessed as reduction in HBcAg level incubated for 6 hrs by Nano-glo luciferase assay. It counts as cell-based. The note with it: read-out: IC50.
Series [2] relates to HepG2. The series can be described thus: Cytotoxicity against human HepG2 cells measured after 3 days by resazurin staining based analysis. Type of series: functional. The note with it: HepG2, 72 h, time 3 day.
Series [3] relates to Hepatitis B virus. Put plainly: Antiviral activity against HBV infected in human HePAD38 cells assessed as inhibition of HBV capsid assembly by measuring secretion of particles containing HBV DNA at 5 uM incubated for 7 days by Southern blot analysis. It counts as functional, organism-based. The note with it: time 7.0 day.
Series [4] has as its system Hepatitis B virus core protein. The series can be described thus: Selectivity index, ratio of CC50 for human HepG2 cells to IC50 for Hepatitis B virus core protein expressed in HEK293T cells. Type of series: toxicity, cell-based. The note with it: read-out: Ratio CC50/IC50.
Series [5] relates to Hepatitis B virus. The series can be described thus: Antiviral activity against HBV infected in human HePAD38 cells assessed as reduction in intracellular core HBV DNA level media replaced for every 2 to 3 days incubated for 7 days by Western blot analysis. It counts as functional, organism-based.
Series [6] has as its system Hepatitis B virus. The series can be described thus: Antiviral activity against HBV infected in human HePAD38 cells assessed as reduction HBV capsid level at 5 uM media replaced for every 2 to 3 days incubated for 7 days by Western blot analysis. Type of series: functional, organism-based. The note with it: time 7.0 day.
In series [7] the test system is Hepatitis B virus. The series can be described thus: Antiviral activity against HBV infected in human HepAD38 cells assessed as inhibition of viral replication incubated for 6 days by qPCR analysis. Type of series: functional, organism-based. The note with it: HePAD38, 144 h.
Series [8] deals with T1, Core antigen. The series can be described thus: Inhibition of Hepatitis B virus core protein expressed in HBC cells derived from HEK293T cells assessed as reduction in HBcAg level […] incubated for 6 hrs by Nano-glo luciferase assay. It counts as cell-based.
The test system of series [9] is Hepatitis B virus. The series can be described thus: Antiviral activity against HBV infected in human HepAD38 cells assessed as inhibition of viral replication. It counts as functional, organism-based.
In series [10] the test system is Hepatitis B virus. Put plainly: Antiviral activity against HBV infected in human HepAD38 cells assessed as inhibition of viral replication by Southern blot analysis. It counts as functional, organism-based.
In series [11] the test system is Hepatitis B virus. The series can be described thus: Antiviral activity against HBV infected in BALB/c mouse hydrodynamic injection model hydrodynamically injected with replication-competent HBV DNA plasmid assessed as decrease in HBsAG level in mouse serum at 100 mg/kg, po administered twice daily for 7 days by ELISA method. Type of series: functional, organism-based. The note with it: time 7.0 day.

The test system of series [12] is Hepatitis B virus. Put plainly: Antiviral activity against HBV infected in BALB/c mouse hydrodynamic injection model hydrodynamically injected with replication-competent HBV DNA plasmid assessed as reduction in HBV DNA copy numbers in plasma at 100 mg/kg, po administered twice daily for 14 days. The note with it: time 14.0 day. Type of series: functional, organism-based.

Series [13] is described as follows: Toxicity in BALB/c mouse at 100 mg/kg, po administered twice daily for 14 days. It counts as organism-based. The note with it: in vivo, 336 h, time 14 day.
Series [14] concerns Hepatitis B virus. Put plainly: Antiviral activity against HBV infected in human HePAD38 cells assessed as decrease in HBV DNA level at 2.5 to 20 uM by q-PCR analysis. It counts as functional, organism-based. The note with it: dose 2.5-20 µM.

The source made the active and inactive calls. The calls are words filed in the database; no cut-off is given here.

T1 sequence (Q03732 whole entry): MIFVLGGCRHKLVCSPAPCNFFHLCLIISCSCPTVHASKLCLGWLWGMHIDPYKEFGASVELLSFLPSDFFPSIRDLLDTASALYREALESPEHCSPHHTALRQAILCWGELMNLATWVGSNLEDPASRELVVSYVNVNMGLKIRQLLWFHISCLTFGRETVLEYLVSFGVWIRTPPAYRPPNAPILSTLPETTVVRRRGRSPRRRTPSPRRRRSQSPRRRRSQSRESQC

Consider `COc1ccc(Sc2nc3ccccc3n2CCCCCO)cc1`, for which the IC50 in series [1] is 0.6 µM. In series [2], this compound had a CC50 of over 100 µM. The outcome in series [3] and in [6] was Active. Further, in [4], the selectivity ratio is over 167. Besides, in [5], the concentration giving a half-maximal response (EC50) was determined as 5.7 µM.

As to `COc1ccccc1/C(Br)=C(/NC(=O)c1ccc([N+](=O)[O-])cc1)C(=O)N1CCCCC1`, the EC50 in [7] worked out at 0.2 µM.

With `COc1ccc(-c2nc3ccccc3[nH]2)cc1`, in series [8], the half-inhibitory concentration (IC50) result is given as “Not Active”. In addition, in [2], it took 10.3 µM to reach half-maximal cytotoxicity (CC50).

Take `COc1ccc(Sc2nc3ccccc3[nH]2)cc1`: in [1], the IC50 came to 1.08 µM. The same compound came in with a CC50 in series [2] of 8.13 µM. In addition, the outcome in series [3] and in series [6] was Active. Also, the selectivity ratio in series [4] worked out at 7.53. Further, in series [5], the EC50 came to 2 µM.

On to `COc1ccc(Cc2nc3ccccc3s2)cc1`, for which the half-maximal inhibitory concentration (IC50) result in series [8] was “Not Active”. This compound also showed a CC50 in series [2] of 32.6 µM.

Turning to `COc1ccc(Cc2nc3ccccc3n2C(C)=O)cc1`, the IC50 in series [1] was 1.57 µM. This compound also had a CC50 in series [2] of 42.8 µM. Moreover, the outcome in series [3] was Active. Also, the selectivity ratio in series [4] is 27.2. The EC50 in series [5] turned out to be 16.1 µM.

As for `O=C(NCc1cc(F)c(F)c(F)c1)c1ccc(F)c(S(=O)(=O)N2CCC(O)CC2)c1`, the EC50 in series [9] came to 0.29 µM.

As to `CCOC(=O)C1=C(CN2CCOCC2)NC(c2nccs2)=N[C@H]1c1ccc(F)cc1Br`, the EC50 in series [10] turned out to be 0.0622 µM.

Take `COc1ccc(Sc2nc3ccccc3n2CCO)cc1`: the IC50 in series [1] came out at 0.51 µM. Moreover, in [2], the CC50 is 84.3 µM. Besides, the outcome in [11], in series [3], in [12], in [14] and in [6] was Active. Further, the selectivity ratio in series [4] was 165. Moreover, the concentration for a half-maximal effect (EC50) in series [5] stood at 2.24 µM. In addition, in series [13], the Activity result was “Non-Toxic”.

As to `OCCn1c(Sc2ccc(Br)cc2)nc2ccccc21`, the IC50 in series [1] turned out to be 2.01 µM. The same compound yielded a CC50 in [2] of 71.8 µM. Besides, in series [4], the selectivity ratio came out at 35.7. Moreover, in series [5], the EC50 stood at 1.99 µM.

As to `COc1ccc(Cc2nc3ccccc3[nH]2)cc1`, the half-maximal inhibitory concentration (IC50) in [1] was 2.05 µM. This compound displayed a CC50 in series [2] of over 100 µM. Besides, the outcome in series [3] was Active. Moreover, the selectivity ratio in series [4] was over 48.8. Also, the EC50 in [5] came to 11.9 µM.

For `COc1ccc(Cc2nc3ccccc3n2CCCCCO)cc1`, the IC50 in series [1] is 0.95 µM. In series [2], the CC50 turned out to be 29.5 µM. The result in [3] and in series [6] was Active. For the same compound, the selectivity ratio in [4] was 31.1. Further, the EC50 in series [5] was determined as 15.9 µM.

As for `COC(=O)C1=C(C)NC(c2ncc(F)cc2F)=N[C@H]1c1ccc(F)cc1Cl`, the EC50 in series [9] came out at 0.0243 µM.

Source of the values: ChEMBL document CHEMBL5512658, “Development of benzimidazole-based compounds as novel capsid assembly modulators for the treatment of HBV infection” (Eur J Med Chem, 2024).
